Experiment [1] can be described thus: dot-blot ^65Zn^2+ binding to synthetic peptides (putative zinc-binding domain of APP). The note with it: for ability to bind ^65Zn^2+: 16 μg peptide dot-blotted. The protocol:
16 μg of the synthesized peptide […], representing residues 181-214 of APP695 (or residues 181-200), or 16 μg of control peptide, was dissolved in 200 μl of blocking buffer (50 mM Tris-HCl, 1 mM MnCl2 10 mM β-mercaptoethanol, 20% methanol, pH 7.4) and dot-blotted onto PVDF (Immobilon-P, Millipore, Befored, Mass.) which had been pre-wetted with methanol. The blot was then incubated for 30 mins at 20° C. with 100,000 CPM of ^65Zn^2+ in blocking buffer, in the presence or absence of various concentrations of competing unlabeled Zn^2+ or other divalent cations. After incubation the dot-blot was washed three times with 200 μl of blocking buffer without MnCl2, the dot was excised and placed in 10 ml of scintillant and assayed by β-counting.

Experiment [2] concerns PC12 cells. The experiment in a line: Effect of extracellular zinc on cultured PC12 cells (APP by Western blot). The class given is cell-based. The note with it: 48 hr. The protocol: 10^6 PC12 cells were plated for 24 hr in the presence of Dulbecco's modified Eagle's medium (DMEM, N2) supplemented with 8% fetal calf serum (FCS). The medium was then removed and replaced with DMEM±2 to 50 μM ZnCl2 or another salt, and no FCS. Cells and media were harvested 48 hr later and aliquots of media, cell cytosol and membrane (following lysis and ultracentrifugation) were assayed for APP by Western blotting with mAb 22C11.

For experiment [3], the system named is APP-degrading protease. Put plainly: Assay of APP-degrading protease (Zn^2+-enhanced degradation of plasma 130 kDa APP). The class given is biochemical, human.
Experiment [4] concerns human brain full-length APP. Put plainly: ^125I-APP binding to heparin-Sepharose. The note with it: for effect on profile of ^125I-APP elution from heparin-Sepharose: Co^2+ at 75 μM. The protocol: 100 kDa human brian full-length APP was iodinated by the Chloramine-T method. Iodinated APP (^125I-APP) was then separated from labelling reagents by Sephacryl G25 chromatography.
The column was then washed with 6 ml buffer 1 and the APP eluted with aliquots of high-NaCl buffers.

Experiment [5] has as its system human brain 130/110 kDa APP. The experiment in a line: ^65Zn binding to human brain 130/110 kDa APP (time course, competition, Scatchard). The note with it: for ^65Zn label competed off APP (of Bmax): unlabelled metal ion at 20 μM; for shift of competition curve relative to the Zn^2+ competition curve: competition for ^65Zn binding. The text has this:
FIG. 4 is a graphical representation showing a time course analysis of ^65Zn binding to human brain 130/110 kDa APP. Amyloid protein precursor (APP) was purified according to the method in Moir et al. (1992). The preparation of purified 130 and 110 kDa APP was derived from human brain membrane extracts and contained the full-length precursor with carboxyl terminus intact but lacked the 17 residue signal peptide. The 130 and 110 kDa proteins were apparent in equal ratios on silver staining following polyacrylamide gel electrophoresis and were the only bands visible. The identity of these two proteins was confirmed by Western blots with monoclonal antibody 22C11 (which recognises an amino terminal epitope on APP), and by amino terminal sequencing. The protein concentration of the APP preparation was determined by amino acid analysis. Aliquots of APP (90 ng, =1.1 pmole, assuming the average amino acid formula weight of APP is =80 kDa) were incubated at 20° C. for the times indicated. Incubations (50 μl) were performed in 150 mM NaCl, 50 mM Tris-Hcl, pH 7.4 in the presence of 10^6 cpm of ^65Zn (175 nM). The incubation solution was then applied to a 1.1 ml bed volume Sephadex G25 (Pharmacia, Uppsala, Sweden) column pre-equilibrated with 150 mM NaCl, 50 mM Tris-HCl, pH 7.4 and allowed to settle before being desalted with 645 μl of the Equilibration buffer. […] The desalted protein was collected directly into counting tubes containing 10 ml aqueous counting scintillant. Less than two minutes was required to complete the desalting. The amount of ^65Zn bound to desalted APP was determined by counting the collected sample in a beta-counter set to the broadest channel. Counting was determined to be 51% efficient. The values shown are means±SD of n≧3 readings.
FIG. 5 is a graphical representation showing a competition analysis of ^65Zn binding to human brain 130/110 kDa APP. Aliquots of APP were incubated for 30 minutes with ^65Zn as in FIG. 4. The binding of the labelled Zn^2+ to APP was subjected to competition with unlabelled Zn^2+ in the form of the chloride salt. Data shown indicate the competition curves generated at pH 6.4 and 7.4. The binding of Zn^2+ to APP deteriorated at the lower pH (=45% of Bmax, pH 7.4). The values are means±SEM of n≧3 readings. The curves illustrated are typical of three experiments.
FIG. 6 is a graphical representation depicting a Scatchard analysis of ^65Zn binding to human brain 130/110 kDa APP.
Binding analysis was performed as follows: Aliquots of APP (90 ng, =1.1 pmole, assuming the average amino acid formula mass of APP is =80 kDa) were incubated at 20° C. Incubations (50 μl) were performed in 150 mM NaCl, 50 mM Tris-HCl, pH 7.4 in the presence of 10^6 CPM of ^65Zn (175 nM). The incubation solution was then applied to a 1.1 ml bed volume Sephadex G25 (Pharmacia, Uppsala, Sweden) column pre-equilibrated with 150 mM NaCl, 50 mM Tris-HCl, pH 7.4 and allowed to settle before being desalted with 645 μl of the equilibration buffer. […] The deslated protein was collected directly into counting tubes containing 10 ml aqueous counting scintillant (ACSII, Amersham). Less than two minutes was required to complete the desalting. The amount of ^65Zn bound to desalted APP was determined by counting the collected sample in a beta-counter set to the broadest channel. Counting was determined to be 51% efficient. The binding of the labelled Zn^2+ to APP was subjected to competition with unlabelled Zn^2+ and other metal chloride salts.

Where [6] appears, read: young adult control preparation, two hours at 37° C., 20 μM ZnCl2.

Square brackets hold non-standard residues; d marks the D form. Peptide text beside a SMILES is read from it. * marks the point of attachment. Sta = CC(C)C[C@H](N)[C@@H](O)CC(=O)O; Isovaleryl = CC(C)CC(=O)*

Regarding renin, the “ability to bind ^65Zn^2+” value in experiment [1] is on record as “unable to bind Zn^2+”.

`[Cl][Fe][Cl]` [FeCl2, reference compound]: in experiment [2], the “effect on APP released into the media compared with zinc” value (“effect … compared with zinc” for short) is listed as “had a similar effect”.

For `CC(C)CC(=O)N[C@H](C(=O)N[C@H](C(=O)N[C@@H](CC(C)C)[C@@H](O)CC(=O)N[C@@H](C)C(=O)N[C@@H](CC(C)C)[C@@H](O)CC(=O)O)C(C)C)C(C)C` [pepstatin A] (Isovaleryl-VV[Sta]A[Sta]-OH), the “influence on Zn^2+-enhanced APP proteolysis” value (from here on “influence”) in experiment [3] ([…]) was “Neither Al3Cl, the cysteine-protease inhibitor N-ethyl maleimide, nor the acid-protease inhibitor pepstatin A influenced the reaction”.

For the molecule “residues 181-200 of APP: synthetic peptide representing about residues 181-200 of APP (SADAEEDDSDVWWGGADTDY; UniProt P05067 198-217, looked up, fragment)”, the “ability to bind ^65Zn^2+” value in experiment [1] was “bind zinc in a specific and saturable manner”.

Insulin B chain: positive control: the “ability to bind ^65Zn^2+” value in experiment [1] is listed as “bound ^65Zn^2+”.

On to “residues 645-655: peptide representing another region of the APP molecule (KTEEISEVKMD; UniProt P05067 662-672, looked up, fragment)”, for which, in experiment [1], the “ability to bind ^65Zn^2+” value is reported as “unable to bind Zn^2+”.

For “residues 189-220 of APP695: synthetic peptide lacking the cysteine residues at positions 186/187 (LAEESDNVDSADAEEDDSDVWWGGADTDYADG; APP695; UniProt P05067 189-220, looked up, fragment)”, the “amount of ^65Zn^2+ binding relative to same quantity of 181-214 peptide” value in experiment [1] was “approximately 15%”.

As to “residues 581-601: peptide representing another region of the APP molecule (TETKTTVELLPVNGEFSLDDL; UniProt P05067 598-618, looked up, fragment)”, the “ability to bind ^65Zn^2+” value in experiment [1] is reported as “unable to bind Zn^2+”.

For the molecule Insulin A chain: control peptide, the “ability to bind ^65Zn^2+” value in experiment [1] is “unable to bind Zn^2+”.

As to `[Co+2]` [Co^2+, reference compound], the “effect on profile of ^125I-APP elution from heparin-Sepharose” value (from here on “effect on profile of ^125I-APP elution”) in experiment [4] was “increased the recovery of ^125I-APP in the 100-500 and 500-2000 mM NaCl fractions”. For the same molecule, the “^65Zn label competed off APP (of Bmax)” value in experiment [5] was found to be 70%.

As to `[Cl][Al]([Cl])[Cl]` [Al3Cl, reference compound], the “influence” value in experiment [3] (setting [6]) is “Neither Al3Cl, the cysteine-protease inhibitor N-ethyl maleimide, nor the acid-protease inhibitor pepstatin A influenced the reaction”. For the same molecule, the “effect … compared with zinc” value in experiment [2] is listed as “far smaller stimulatory effects”.

As for `[Ca+2].[Cl-].[Cl-]` [Ca^2+, reference compound], the “effect on profile of ^125I-APP elution” value in experiment [4] is listed as “did not alter the profile of ^125I-APP elution”. The “shift of competition curve relative to the Zn^2+ competition curve” value in experiment [5] was “shifted greater than two log units to the right”.

Turning to `[Cu+2]` [Cu^2+, reference compound], the “^65Zn label competed off APP (of Bmax)” value in experiment [5] is recorded as 60%.

With `CCN1C(=O)C=CC1=O` [N-ethyl maleimide, N-ethylmaleimide], the “influence” value in experiment [3] (setting [6]) was “Neither Al3Cl, the cysteine-protease inhibitor N-ethyl maleimide, nor the acid-protease inhibitor pepstatin A influenced the reaction”.

With `[Cl][Al]([Cl])[Cl]` [Al^3+], in experiment [4], the “increase in ^125I-APP recovery in the 500-2000 mM NaCl fraction” value is reported as “approximately 4.5 fold” and the “effect on profile of ^125I-APP elution” value is “decreased the recovery of ^125I-APP except in the 500-2000 mM NaCl fraction”. For the same molecule, in experiment [5], the “^65Zn label competed off APP (of Bmax)” value is listed as 60%.

On to “residues 422-433: peptide representing another region of the APP molecule (VESLEQEAANER; UniProt P05067 439-450, looked up, fragment)”, for which the “ability to bind ^65Zn^2+” value in experiment [1] is “unable to bind Zn^2+”.

Take `[Cl-].[Cl-].[Mg+2]` [Mg^2+, reference compound]: the “effect on profile of ^125I-APP elution” value in experiment [4] is “did not alter the profile of ^125I-APP elution”. Besides, in experiment [5], the “shift of competition curve relative to the Zn^2+ competition curve” value is on record as “shifted greater than two log units to the right”.

Turning to `[Cl][Cu]` [cuprous chloride, reference compound], the “effect … compared with zinc” value in experiment [2] is “far smaller stimulatory effects”.

For aprotinin, in experiment [3] (setting [6]), the “influence” value was “completely inhibited”.

As to “GVEFVCCPLAEESDNVDSADAEEDDSDVWWGGAD [residues 181-214 of APP]”, the “ability to bind ^65Zn^2+” value in experiment [1] was “able to bind Zn^2+ in a saturable and specific manner”.

Take “carboxyamidomethylated 181-214 peptide: the 181-214 peptide where the cysteines had been modified by carboxyamidomethylation”: the “amount of ^65Zn^2+ binding relative to same quantity of 181-214 peptide” value in experiment [1] is listed as “approximately 15%”.

Consider `O=C(O)CN(CCN(CC(=O)O)CC(=O)O)CC(=O)O` [EDTA, ethylene diamine tetra acetic acid], for which the “influence” value in experiment [3] (setting [6]) was “completely inhibited”.

B1: α1-antichymotrypsin (protein, UniProt P01011 24-423, looked up)
Alpha-1-antichymotrypsin: HPNSPLDEENLTQENQDRGTHVDLGLASANVDFAFSLYKQLVLKAPDKNVIFSPLSISTALAFLSLGAHNTTLTEILKGLKFNLTETSEAEIHQSFQHLLRTLNQSSDELQLSMGNAMFVKEQLSLLDRFTEDAKRLYGSEAFATDFQDSAAAKKLINDYVKNGTRGKITDLIKDLDSQTMMVLVNYIFFKAKWEMPFDPQDTHQSRFYLSKKKWVMVPMMSLHHLTIPYFRDEELSCTVVELKYTGNASALFILPDQDKMEEVEAMLLPETLKRWRDSLEFREIGELYLPKFSISRDYNLNDILLQLGIEEAFTSKADLSGITGARNLAVSQVVHKAVLDVFEEGTEASAATAVKITLLSALVETRTIVRFNRPFLMIIVPTDTQNIFFMSKVTNPKQA
For the molecule B1, in experiment [3] (setting [6]), the “influence” value is listed as “incompletely inhibited”.

B2: soya bean trypsin inhibitor (protein, UniProt P01070 25-205, looked up)
Trypsin inhibitor A: DFVLDNEGNPLENGGTYYILSDITAFGGIRAAPTGNERCPLTVVQSRNELDKGIGTIISSPYRIRFIAEGHPLSLKFDSFAVIMLCVGIPTEWSVVEDLPEGPAVKIGENKDAMDGWFRLERVSDDEFNNYKLVFCPQQAEDDKCGDIGISIDHDDGTRRLVVSKNKPLVVQFQKLDKESL
Consider B2, for which the “influence” value in experiment [3] (setting [6]) is on record as “completely inhibited”.

For the origin of these results see patent publication US20040265847A1, “Method for treating Alzheimer's disease” (priority 1991, published 2004).
